Holding throughout (format): biochemical
The target of one test is Human Tyk2 kinase domain (Homo sapiens (Human), UniProt P29597). Kind of test: Tyk2 Inhibition Assay (Omnia kinase assay). Particulars: Table 2; 500 μM ATP. As to the method: (§1) The assays described in Examples C, D, E and F for the determination of JAK1, JAK2, JAK3 and Tyk2 kinase activity, respectively, utilized the Omnia® Kinase fluorescence peptide substrate-based technology (Invitrogen). […] The reactions were therefore read at excitation 360 nm and emission was measured at 485 nm every 50 seconds for 45 minutes using a PerkinElmer EnVision Multilabel Plate Reader.
Sequence of Human Tyk2 kinase domain (P29597 886-1187): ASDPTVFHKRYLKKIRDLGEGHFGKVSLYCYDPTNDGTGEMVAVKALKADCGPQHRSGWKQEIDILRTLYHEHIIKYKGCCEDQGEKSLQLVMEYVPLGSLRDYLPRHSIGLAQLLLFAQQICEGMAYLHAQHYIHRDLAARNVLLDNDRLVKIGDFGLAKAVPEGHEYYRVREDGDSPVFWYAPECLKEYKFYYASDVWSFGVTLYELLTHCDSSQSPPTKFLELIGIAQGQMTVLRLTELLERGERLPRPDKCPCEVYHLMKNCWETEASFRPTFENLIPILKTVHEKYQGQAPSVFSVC
(§2) The final buffer conditions for each of the JAK1, JAK2, JAK3 and Tyk2 assays were as follows: 25 mM HEPES, pH 7.4, 10 mM MgCl2, 0.01% Triton X-100 and 1 mM DTT.
(§3) Compounds were prepared at 50× the final concentration in DMSO by conducting 3-fold serial dilutions from a 500-μM or 1000-μM intermediate dilution to give a 10-point dosing curve having a high dose of 10 or 20 μM. Two-μL aliquots of these were transferred to a fresh plate for a ten-fold intermediate dilution with assay buffer. Five-μL aliquots of the diluted compounds were then transferred to 20-μL of assay mixtures described in Examples C, D, E and F for a final concentration of DMSO of 2%. A standard or reference compound was typically included on each assay plate to validate that plate. For each plate, percent of control (POC) values were calculated for each well according to the following equation: […]
(§4) IC50's were estimated from the POC's using a standard 4-parameter logistic model: […]

The target in the next test is Human Jak2 kinase domain (Homo sapiens (Human), UniProt O60674). In words: Jak2 Inhibition Assay (Omnia kinase assay). The source says:
The assays described in Examples C, D, E and F for the determination of JAK1, JAK2, JAK3 and Tyk2 kinase activity, respectively, utilized the Omnia® Kinase fluorescence peptide substrate-based technology (Invitrogen). The specific components of the assay mixture are described in Examples C, D and E. […] Two-μL aliquots of these were transferred to a fresh plate for a ten-fold intermediate dilution with assay buffer. […] Human Jak2 kinase domain comprising amino acids 808-1132 was purchased from Invitrogen Corporation, Carlsbad, Calif.

Test [1] has as its target GST-tagged human Jak3 kinase domain (Homo sapiens (Human), UniProt P52333). In words: Jak3 Inhibition Assay (Omnia kinase assay). The following applies: Table 2; 500 μM ATP. As to the method:
as §1, §2, §3, §4

The target in test [2] is GST-tagged human Jak1 kinase domain (Homo sapiens (Human), UniProt P23458). In words: Jak1 Inhibition Assay (Omnia kinase assay). Particulars: Table 2; 500 μM ATP. As to the method:
as §1, §2, §3, §4

Test [3] concerns the target histidine-tagged recombinant human TrkA, cytoplasmic domain (Homo sapiens (Human), UniProt P04629). In words: TrkA ELISA Assay. Particulars: Table 1, 500 μM ATP, read-out: TrkA Enzyme IC50. As to the method:
An enzyme-linked immunosorbant assay (ELISA) was used to assess TrkA kinase activity in the presence of inhibitors. […] The assay buffer consisted of 25 mM MOPS pH 7.5, 0.005% (v/v) Triton X-100 and 5 mM MgCl2. The reaction mixture was removed from the plate by washing with PBS containing 0.1% (v/v) Tween 20. […] After the addition of 1M phosphoric acid, the chromogenic substrate color intensity was quantitated via absorbance at 450 nm.
On the technique in general: ELISA stands for enzyme-linked immunosorbent assay.

Where [4] appears, read: read-out: Jak2 Enzyme % inhibition at 1000 nM, Table 1, 1000 nM test compound.

What is called pIC50 is the IC50 on a negative log10 scale, so that one unit is a factor of ten. By inhibition is commonly meant how much of the control response was suppressed.

pIC50: −log10 of the molar value. Where two headings read alike, the source gives them in different places.

Sequence of Human Jak2 kinase domain (O60674 808-1132): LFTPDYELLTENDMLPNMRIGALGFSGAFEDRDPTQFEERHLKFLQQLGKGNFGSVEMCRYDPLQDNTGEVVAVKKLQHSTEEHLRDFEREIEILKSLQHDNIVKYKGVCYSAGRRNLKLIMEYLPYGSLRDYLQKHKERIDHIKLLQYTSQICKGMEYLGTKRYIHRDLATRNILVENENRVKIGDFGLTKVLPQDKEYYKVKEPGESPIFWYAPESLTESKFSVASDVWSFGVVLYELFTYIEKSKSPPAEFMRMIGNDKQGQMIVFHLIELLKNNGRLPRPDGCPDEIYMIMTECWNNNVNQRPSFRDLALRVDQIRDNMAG
Sequence of GST-tagged human Jak3 kinase domain (P52333 781-1124): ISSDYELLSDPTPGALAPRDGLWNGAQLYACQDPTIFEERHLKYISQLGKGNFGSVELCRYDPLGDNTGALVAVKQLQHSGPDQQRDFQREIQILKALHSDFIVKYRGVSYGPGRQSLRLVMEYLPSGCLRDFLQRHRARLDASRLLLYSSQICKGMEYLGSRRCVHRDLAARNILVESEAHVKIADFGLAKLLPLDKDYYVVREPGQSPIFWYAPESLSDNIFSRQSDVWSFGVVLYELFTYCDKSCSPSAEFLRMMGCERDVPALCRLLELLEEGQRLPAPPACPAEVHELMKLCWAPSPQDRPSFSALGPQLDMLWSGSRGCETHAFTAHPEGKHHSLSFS
Sequence of histidine-tagged recombinant human TrkA, cytoplasmic domain (P04629 440-796): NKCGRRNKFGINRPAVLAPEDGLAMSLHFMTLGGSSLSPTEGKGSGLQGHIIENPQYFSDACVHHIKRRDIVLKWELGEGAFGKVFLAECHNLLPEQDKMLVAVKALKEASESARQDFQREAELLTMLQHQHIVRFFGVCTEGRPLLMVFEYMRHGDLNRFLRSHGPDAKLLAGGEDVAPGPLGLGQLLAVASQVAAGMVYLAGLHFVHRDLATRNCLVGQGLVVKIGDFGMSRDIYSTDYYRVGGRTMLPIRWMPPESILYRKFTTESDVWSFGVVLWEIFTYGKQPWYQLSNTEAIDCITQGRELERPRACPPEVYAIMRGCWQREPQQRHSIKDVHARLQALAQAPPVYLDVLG
Sequence of GST-tagged human Jak1 kinase domain (P23458 866-1154): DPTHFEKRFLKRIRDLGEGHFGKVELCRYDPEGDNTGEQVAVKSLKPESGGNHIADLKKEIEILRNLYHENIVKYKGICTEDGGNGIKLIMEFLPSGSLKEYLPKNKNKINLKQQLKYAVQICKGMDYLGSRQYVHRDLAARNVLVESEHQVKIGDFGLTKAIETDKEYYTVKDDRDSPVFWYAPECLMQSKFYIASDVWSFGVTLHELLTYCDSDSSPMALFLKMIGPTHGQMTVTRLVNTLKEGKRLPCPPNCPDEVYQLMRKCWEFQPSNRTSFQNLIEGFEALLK

Regarding `COc1ncc(F)cc1[C@H]1CCCN1c1ccn2ncc(C(=O)N[C@H]3CC[C@H](O)CC3)c2n1` [Example 140, 5-((R)-2-(5-fluoro-2-methoxypyridin-3-yl)pyrrolidin-1-yl)-N-((trans)-4-hydroxycyclohexyl)pyrazolo[1,5-a]pyrimidine-3-carboxamide], the pIC50 against Human Tyk2 kinase domain was < 6.00. On to `O=C(N[C@@H]1C2CC[C@@H](C2)[C@@H]1CO)c1cnn2ccc(N3CCC[C@@H]3c3cncc(F)c3)nc12` [Example 138, 5-((R)-2-(5-fluoropyridin-3-yl)pyrrolidin-1-yl)-N-((2R,3S,4S)-3-(hydroxymethyl)bicyclo[2.2.1]heptan-2-yl)pyrazolo[1,5-a]pyrimidine-3-carboxamide], for which, on Human Jak2 kinase domain (read-out: Jak2 Enzyme % inhibition at 1000 nM), the inhibition at 1 µM was determined as 10%. Consider `Cc1ncc(F)cc1[C@H]1CCCN1c1ccn2ncc(C(=O)N[C@H]3CC[C@H](O)CC3)c2n1` [Example 194, 5-((R)-2-(5-fluoro-2-methylpyridin-3-yl)pyrrolidin-1-yl)-N-((trans)-4-hydroxycyclohexyl)pyrazolo[1,5-a]pyrimidine-3-carboxamide], for which the negative logarithm of the IC50 (pIC50) (in test [1]; in test [2]; against Human Tyk2 kinase domain) was < 6.00 each time. `O=C(N[C@H]1CC[C@@H](O)CC1)c1cnn2ccc(N3CCC[C@@H]3c3cncc(F)c3)nc12` [Example 100, 5-((R)-2-(5-fluoropyridin-3-yl)pyrrolidin-1-yl)-N-((cis)-4-hydroxycyclohexyl)pyrazolo[1,5-a]pyrimidine-3-carboxamide]: on Human Jak2 kinase domain (setting [4]), the inhibition at 1 µM was 13.8%. Consider `Cc1ncc(F)cc1[C@H]1CCCN1c1ccn2ncc(C(=O)N[C@@H]3CCC[C@H]3O)c2n1` [Example 197, 5-((R)-2-(5-fluoro-2-methylpyridin-3-yl)pyrrolidin-1-yl)-N-((1R,2R)-2-hydroxycyclopentyl)pyrazolo[1,5-a]pyrimidine-3-carboxamide], for which the pIC50 at Human Jak2 kinase domain (Table 1, 500 μM ATP, >1000 nM when >50% inhibition not observed at 1000 nM, read-out: Jak2 Enzyme IC50) was < 6.00; in test [3], 8.32. Take `O=C(N[C@H]1CC[C@H](O)CC1)c1cnn2ccc(N3CCC[C@@H]3c3cncc(F)c3)nc12` [Example 99, 5-((R)-2-(5-fluoropyridin-3-yl)pyrrolidin-1-yl)-N-((trans)-4-hydroxycyclohexyl)pyrazolo[1,5-a]pyrimidine-3-carboxamide]: the inhibition at 1 µM on Human Jak2 kinase domain (setting [4]) came out at 45.8%.

For the origin of these results see US9782415B2, “Substituted pyrazolo[1,5-a]pyrimidine compounds as Trk kinase inhibitors” (Array BioPharma, Inc., priority 2009, dated 2017).
